Reference: publication PMC4552745, “Novel Gallate Triphenylphosphonium Derivatives with Potent Antichagasic Activity” (PLoS ONE, 2015)

Experiments:
[1] = system: VERO cells; assay: MTT reduction viability assay on VERO cells; type: cell-based; conditions: Chlorocebus sabaeus, 24 hours exposure, mean ± SD
Method: The effect of the drugs on parasite viability was evaluated using the tetrazolium salt (MTT) reduction assay. […] Alternatively, VERO cells attached to the surface of 96-well plates were washed and incubated with MTT (5 mg/mL). After incubation for 4 h at 37°C, the generated formazan crystals were dissolved with 100 μL of 10% (w/v) sodium dodecyl sulfate (SDS) in 0.01 M HCl. The plates were then incubated overnight at 37°C, and the optical density (OD) was determined using a microplate reader (Labsystems Multiskan MS, Finland) at 570 nm. Under these conditions, the OD is directly proportional to the number of viable cells in each well [33, 34]. All of the experiments were performed at least three times. […] The data from each experiment were plotted using the formazan absorbance versus the log of the concentration, and the plot was fitted to the dose-response (four-parameters) equation using the software Graph Pad Prism V5.0, obtaining the EC50 value per drug and per experiment. The data are expressed as the mean ± DS of the EC50s obtained from each experiment.

[2] = system: T. cruzi trypomastigotes (Y strain); type: cell-based; conditions: for markers of cell death (phosphatidylserine exposure and propidium iodide permeabilization): 1 μM, 24 hours; for number of viable cells (without annexin-V or PI positivity): 24 hours, 0.1, 0.5 or 1 μM, Fig 2B
Method: For these assays, 10^7 trypomastigotes (Y strain) were exposed to […] for 24 h in RPMI at 37°C and 5% CO2. The cells were then washed in phosphate-buffered saline (PBS), resuspended, and incubated with propidium iodide (PI) and Annexin-V labeled with Alexa Fluor 488. The incubation was performed using Alexa Fluor 488 Annexin V/Dead Cell Apoptosis Kit (Molecular Probes, USA) following the manufacturer’s instructions. The fluorescence of the samples was measured using a FACSAria-III flow cytometer (BD biosciences, USA) with 530/30 and 630/22 filters to detect Annexin-V and PI, respectively. For each sample, 5,000 events were recorded, and the data were analyzed using FACSDiva 6.1 software.

[3] = system: T. cruzi intracellular amastigotes in VERO cells; assay: DAPI staining and intracellular amastigote quantification in infected VERO cells; type: cell-based, Trypanosoma cruzi; conditions: 1 μM, 48 hours, control 12.9 ± 2.2
Method: VERO (Chlorocebus sabaeus kidney fibroblasts, ATCC number: CCL-81) cells were exposed to T. cruzi trypomastigotes (Y strain) at a 5:1 ratio (trypomastigotes:cells) for 24 hours. The cells were then washed and treated with different compounds, at 0.1 and 1 μM, for 48 hours. The cells were washed and fixed in cold methanol (70%) overnight; the fixed cells were washed, and 1 mL of PBS (pH 7.4) was added. The DNA was stained with DAPI (NucBlue, Molecular Probes, USA) following the manufacturer’s instructions. The cells were photographed using a Nikon Eclipse 400 fluorescence microscope at 358 nm (excitation) and 461 nm (emission). Five images were obtained per well, and each picture was analyzed by two independent researchers.

[4] = system: T. cruzi trypomastigotes mitochondrial transmembrane potential (ΔΨm); assay: Mitochondrial membrane potential assessment by JC-1; type: cell-based, Trypanosoma cruzi; conditions: 1 μM, 2 hours, Fig 5A bottom panel; FCCP 100 μM positive control
Method: For the determination of mitochondrial membrane potential by JC-1, we adapted the method described by Cossariza and Savioli (2001). In total, 5 x 10^6 trypomastigotes were seeded in 24-well plates in 1 mL of RPMI medium without FBS. The parasites were exposed to 0.1 or 1 μM of the different TPP^+ derivatives for 2 hours; alternatively, the parasites were exposed to 100 μM FCCP (Sigma Aldrich, USA) for 15 min as a positive control of the uncoupling of mitochondrial respiration. The cells were then washed with 500 μL of PBS and centrifuged at 1500 x g for 5 min. The parasites were then resuspended in 1 mL of PBS at 37°C. JC-1 (Molecular Probes, Applied Biosytems, USA) 1 mg/mL in DMSO was added at a final concentration of 5 μg/mL, and the mixtures were incubated for 15 min at 37°C in the dark. Next, the samples were centrifuged at 1500 x g for 5 min, and the supernatants, which contained unincorporated JC-1, were discarded. The pellet was suspended in PBS (1 mL), and fluorescence was measured using a FACSAria-III flow cytometer (BD Biosciences, USA). We used 488 nm as the excitation wavelength; the emission of JC-1 monomers was detected using the FITC filter (530/30), and the JC-1 aggregates were detected using the PE filter (585/42). Each measurement involved 5,000 events. The data were analyzed using FACSDiva 6.1 software.

[5] = system: T. cruzi trypomastigotes (Y strain) mitochondrial permeability transition pore; assay: Mitochondrial permeability transition pore opening (calcein AM / CoCl2); type: cell-based, Trypanosoma cruzi; conditions: 1 hour, Fig 6B
Method: The opening of mitochondrial permeability transition pores was assessed using the calcein AM probe, adapting the method described by Huang et al (2014). Calcein-AM is a lipophilic probe that can enter the cell, including the mitochondria, and is then cleaved by cellular esterases, releasing the fluorescent probe calcein. T. cruzi trypomastigotes (Y strain, 5 x 10^6 parasites/mL) were stained with 100 nM calcein AM (Molecular Probes, Applied Biosytems, USA) and incubated at 37°C for 15 min in the presence of […] of CoCl2 to quench the cytosolic fluorescence of calcein. Then, the parasites were washed with PBS and resuspended in RPMI medium, without phenol red, supplemented with 0.3 mM of Ca^+2. The parasites were then seeded in 24-well plates and exposed to the different compounds (TPP^+-C8, TPP^+-C10, TPP^+-C11, and TPP^+-C12) at 1 or 5 μM for 1 hour. As a positive control, one group was exposed to ionomycin (0.5 μM). The samples were measured using a FACS Aria III flow cytometer (BD Biosciences, USA) with the 494/517 filter to detect calcein fluorescence. For every measurement, 5,000 events were recorded. The raw flow cytometry data were analyzed using FACSDiva 6.1 software (BD Biosciences). The results were analyzed using the median fluorescence intensity (MFI) from the frequency histograms. Thus, we used the median intensity of the control group (parasites incubated with calcein AM and CoCl2) to establish 100% of mitochondrial fluorescence, thereby establishing percent ratios between the treatment groups and the control.

SMILES | EC50 [1] [µM] | markers of cell death (phosphatidylserine exposure and propidium iodide permeabilization) [2] | number of viable cells (without annexin-V or PI positivity) [2] | number of amastigotes per infected cell [3] | JC-1 red fluorescence (aggregates) [4] | mitochondrial calcein fluorescence (median fluorescence intensity) ([5]; 5 μM) | mitochondrial calcein fluorescence (median fluorescence intensity) ([5]; 1 μM)
O=C(OCCCCCCCCCC[P+](c1ccccc1)(c1ccccc1)c1ccccc1)c1cc(O)c(O)c(O)c1.[Br-] [TPP^+-C10, triphenyl(10-((3,4,5-trihydroxybenzoyl)oxy)-decyl) phosphonium bromide] | 11.3 ± 0.1 | induced markers of cell death | significant decrease in the number of viable cells at concentrations of 0.5 and 1 μM | 2.5 ± 1.1 | induced mitochondrial changes, though to a lower extent than FCCP | 22 % of the control | 
O=C(OCCCCCCCCCCCC[P+](c1ccccc1)(c1ccccc1)c1ccccc1)c1cc(O)c(O)c(O)c1.[Br-] [TPP^+-C12, triphenyl(12-((3,4,5-trihydroxybenzoyl)oxy)-dodecyl) phosphonium bromide] | 10.9 ± 2.4 | induced markers of cell death | significant decrease in the number of viable cells at concentrations of 0.5 and 1 μM | 2.0 ± 0.7 | induced mitochondrial changes, though to a lower extent than FCCP | 20 % of the control | 29 % of the control
